Source: paper PMC9198979, “Polymeric Nanotubes as Drug Delivery Vectors—Comparison of Covalently and Supramolecularly Assembled Constructs” (Biomacromolecules, 2022)

Assay: In vivo pharmacokinetics of 14C-radiolabelled compounds after IV dosing (plasma and urine radioactivity)
Design: species or system male Sprague Dawley rats
Details: rat
Description: All animal experimental protocols were approved by the Monash Institute of Pharmaceutical Sciences Animal Ethics Committee, Monash University, Parkville, VIC, Australia. Male Sprague Dawley rats (250–350 g) were used. Animals were maintained on a 12 h light/dark cycle at all times and after transport were acclimatized for 7 days at the facility prior to in vivo studies. […] Urine samples were collected at the 24 h timepoint, and a 50 μL of the sample was transferred to a vial, 4 mL of Ultima Gold added and counted using the scintillator. A blank urine sample prior to dosage was also collected and analyzed to account for background radiation. The pharmacokinetic parameters were determined using non-compartmental analysis with Excel software using the PK Solver add-in (NCA IV Bolus model). […] AUC0-t, elimination half-life (t1/2), volume of distribution at steady state (Vd ss), and clearance rate (Cl) were calculated with this approach. For the linear compound, the 1440 min timepoint was omitted from parameter fitting due to the very low radioactivity for this measurement. The ^14C-radiolabeled compounds were injected intravenously into male Sprague-Dawley rats at a nominal dose of radioactivity (1 μCi, varying 0.82–2.78 mg dose of the sample) and blood samples taken over the course of 24 h to monitor the plasma concentration time profiles.

Substance | Cl (clearance rate) [mL h^–1]
(PNAM50-co-NAS2.5)140 [BB] | 0.342 ± 0.102
PNAM100-co-NAS5 [linear] | 16.9 ± 0.91
